Marks after values point to notes of the source that are not given here.
Key:
[1] = target: T1, UGT2B7 (Homo sapiens, UniProt P16662); experiment: in vitro; settings: for microsomal CLint: pH 7.8; for Km: pH 7.8, Km, Michaelis-Menten modeling
T1 sequence (P16662 24-529): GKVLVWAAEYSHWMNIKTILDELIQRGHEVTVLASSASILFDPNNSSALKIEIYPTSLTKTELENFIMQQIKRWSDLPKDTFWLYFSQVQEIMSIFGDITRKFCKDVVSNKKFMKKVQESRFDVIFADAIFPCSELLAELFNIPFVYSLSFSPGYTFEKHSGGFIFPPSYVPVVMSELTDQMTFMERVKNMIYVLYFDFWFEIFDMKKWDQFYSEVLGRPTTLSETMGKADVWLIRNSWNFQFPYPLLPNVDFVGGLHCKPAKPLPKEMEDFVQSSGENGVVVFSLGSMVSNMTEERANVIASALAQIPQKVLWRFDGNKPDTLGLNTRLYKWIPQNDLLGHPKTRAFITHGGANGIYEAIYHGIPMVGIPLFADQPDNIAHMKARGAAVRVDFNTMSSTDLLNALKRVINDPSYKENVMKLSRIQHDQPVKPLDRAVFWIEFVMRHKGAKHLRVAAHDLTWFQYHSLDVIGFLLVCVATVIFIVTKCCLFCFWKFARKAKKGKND

[2] = in vitro; settings: human
[3] = in vitro; settings: human; remark: listed apart in the source
[4] = Microsomal binding (fu,mic) using HLM-beads; settings: for fu,mic: HLM-beads, compound 1.0 μM, (SD)
[5] = Microsomal binding (fu,mic) using rapid equilibrium dialysis (RED); settings: compound 1.0 μM, (SD)
[6] = cited from earlier work
[7] = Non-specific binding of compounds to magnetizable beads alone; settings: 30 min incubation of beads (5.3×10^9 beads), bioanalysis of supernatant
[8] = substrate: CCN(CC)Cc1cc(Nc2ccnc3cc(Cl)ccc23)ccc1O; experiment: not read; settings: other: HLM suspensions; substrate inhibition modeling; pH 7.4
[9] = human liver microsomes bound to magnetic beads (HLM-beads)

## Cc1cn([C@H]2C[C@H](N=[N+]=[N-])[C@@H](CO)O2)c(=O)[nH]c1=O [AZT, zidovudine]
[1]; human liver microsomes (suspension)
  microsomal CLint: 0.44 µL/min/mg
[1]
  microsomal CLint: 2.8 µL/min/mg
[1]; HLM suspensions
  Km: 1400 ± 0.1 µM
[1]; HLM-beads
  Km: 490 ± 0.06 µM

## Cc1nnc2n1-c1ccc(Cl)cc1C(c1ccccc1)=NC2 [Alprazolam]
[2]; microsomes
  fraction unbound at 5 min, 1 μM: 0.81
[3]; microsomes
  fraction unbound at 6 h, 1 μM: 0.98
[4]; HLM 0.50 mg/ml
  fu,mic ratio HLM-beads/RED: 0.77
  fu,mic: 0.78 (0.06)
[4]; HLM 1.0 mg/ml
  fu,mic ratio HLM-beads/RED: 0.66
  fu,mic: 0.68 (0.07)
[4]; HLM […]
  fu,mic ratio HLM-beads/RED: 0.82
[5]; HLM 0.50 mg/ml
  fu,mic: 1.0 (0.1)
[5]; HLM 1.0 mg/ml
  fu,mic: 1.0 (0.1)

## O=C(O)Cc1ccccc1Nc1c(Cl)cccc1Cl [Diclofenac, diclofenac]
[2]
  fraction unbound at 5 min, 1 μM: 0.94
[2]; [9]
  fraction unbound at 5 min, 1 μM: 0.87
[3]; microsomes
  fraction unbound at 6 h, 1 μM: 0.98
[4]; HLM 0.50 mg/ml
  fu,mic: 0.92 (0.03)^a

## CCCCNC(=O)NS(=O)(=O)c1ccc(C)cc1 [Tolbutamide, tolbutamide]
[6]
  pKa: 5.2

## OCc1ncc2n1-c1ccc(Cl)cc1C(c1ccccc1F)=NC2 [1′OH midazolam, 1′hydroxymidazolam]
[7]
  non-specific binding to the beads: not observed

## COc1ccc([C@@H]2Sc3ccccc3N(CCN(C)C)C(=O)[C@@H]2OC(C)=O)cc1 [Diltiazem, diltiazem]
[2]
  fraction unbound at 5 min, 1 μM: 0.99
[2]; [9]
  fraction unbound at 5 min, 1 μM: 0.97
[3]; microsomes
  fraction unbound at 6 h, 1 μM: 0.96
[6]
  pKa: 9.4
[4]; HLM 0.50 mg/ml
  fu,mic ratio HLM-beads/RED: 1.5
[4]; HLM 1.0 mg/ml
  fu,mic ratio HLM-beads/RED: 1.3
[4]; HLM […]
  fu,mic ratio HLM-beads/RED: 1.0

## CCC(C)n1ncn(-c2ccc(N3CCN(c4ccc(OCC5COC(Cn6cncn6)(c6ccc(Cl)cc6Cl)O5)cc4)CC3)cc2)c1=O (stereo not shown) [Itraconazole, itraconazole]
[2]; [9]
  fraction unbound at 5 min, 1 μM: 0.073
[3]
  fraction unbound at 6 h, 1 μM: 0.025
[4]; HLM 0.50 mg/ml
  fu,mic ratio HLM-beads/RED: 2.8
  fu,mic: 0.10 (0.01)
[4]; HLM 1.0 mg/ml
  fu,mic ratio HLM-beads/RED: 2.9
[4]; HLM […]
  fu,mic ratio HLM-beads/RED: 0.84
  fu,mic: 0.24 (0.04)
[5]; pre-soak method, HLM 0.50 mg/ml
  fu,mic: 0.036 (0.005)^b
[5]; pre-soak method, HLM […]
  fu,mic: 0.29 (0.07)^b

## CN(C)CCCN1c2ccccc2CCc2ccccc21 [Imipramine, imipramine]
[3]; microsomes
  fraction unbound at 6 h, 1 μM: 0.4

## CN(C)CCCN1c2ccccc2Sc2ccc(Cl)cc21 [Chlorpromazine, chlorpromazine]
[4]; HLM 0.50 mg/ml
  fu,mic: 0.11 (0.02)
[4]; HLM […]
  fu,mic: 0.79 (0.13)

B1: CYP2C8 (Homo sapiens) (protein)
chain: MEPFVVLVLCLSFMLLFSLWRQSCRRRKLPPGPTPLPIIGNMLQIDVKDICKSFTNFSKVYGPVFTVYFGMNPIVVFHGYEAVKEALIDNGEEFSGRGNSPISQRITKGLGIISSNGKRWKEIRRFSLTTLRNFGMGKRSIEDRVQEEAHCLVEELRKTKASPCDPTFILGCAPCNVICSVVFQKRFDYKDQNFLTLMKRFNENFRILNSPWIQVCNNFPLLIDCFPGTHNKVLKNVALTRSYIREKVKEHQASLDVNNPRDFIDCFLIKMEQEKDNQKSEFNIENLVGTVADLFVAGTETTSTTLRYGLLLLLKHPEVTAKVQEEIDHVIGRHRSPCMQDRSHMPYTDAVVHEIQRYSDLVPTGVPHAVTTDTKFRNYLIPKGTTIMALLTSVLHDDKEFPNPNIFDPGHFLDKNGNFKKSDYFMPFSAGKRICAGEGLARMELFLFLTTILQNFNLKSVDDLKNLNTTAVTKGIVSLPPSYQICFIPV
[8]
  Km: 0.732 ± 0.11 µM
  Vmax/Km: 1340 µL/min/mg

Source: US20210223237A1, “COMPOSITIONS AND METHODS FOR STUDYING DRUG METABOLISM” (Boehringer Ingelheim International GmbH, priority 2020, published 2021)
